# Ends that are not written are not given here.
# Columns and labels:
# [1] = system: Keratin K19; test: Keratin K19 immunolabeling in UV-irradiated hair follicles maintained in culture; type: cell-based; conditions: hair follicles treated with 1% peptide 24 hours before UV irradiation (UVA 5 J/cm, UVB 200 mJ/cm^2); image analysis
# Experimental: The hair follicles were sampled from a biopsy using a scalpel and fine pliers, and then cultured in 24-well plates using William's E medium in the presence of antibiotics (0.2% Primocin), 10 μg/ml insulin, 10 ng/ml hydrocortisone and 2 mmol/L L-glutamine.
# The follicles were either treated or not with the 1% peptide compound SEQ ID NO: 2 in Williams' medium and then incubated for 24 hours. UV irradiation was then applied (UVA: 5 J/cm, UVB 200 mJ/cm^2), and the follicles were then re-cultured for 24 hours. At the end of the experiment, the follicles were incorporated within OCT and frozen at −196° C. (liquid nitrogen). The follicles were then placed in a cryostat in order to prepare 6-μm sections at a temperature of −23° C. The slides containing the sections were placed in an acetone bath for 10 minutes (fixing) and then rinsed.
# The fixed sections were rinsed once with PBS for 5 minutes, and then wrapped in Pappen. Each section was incubated with 5 μl 5%-BSA for 30 minutes. Then, 50 μl of primary anti-Cytokeratin K19 antibody (Progen, Mouse monoclonal) diluted to 1/50th were added and incubated for one hour with stirring in a humid chamber. After rinsing with PBS for 30 minutes, 50 μl of a fluorescence-labeled secondary antibody was added and left for one hour in the dark with stirring in a humid chamber. […]
# [2] = system: Survivin protein; test: Survivin protein expression by Western Blotting on cultured cellular fractions RA and SA1; type: cell-based, human; conditions: 48 hours, compound diluted to 3% (from a 10^-4 M solution)
# Experimental: To investigate the role of the CPC proteins in the maintenance and protection of epidermal adult stem cells under various types of stress, several fractions of primary cells of human epidermis were prepared. Fractioning was carried out based on the adhesion time of cells to collagen IV: less than 20 minutes corresponds to fast adhesion (fraction RA), less than 5 hours, to slow adhesion No 1 (fraction SA1), less than 16 hours, to slow adhesion No 2 (fraction SA2), and lastly, non-adhering keratinocytes (fractions NA). […]
# An investigation of the modulator effect of the peptide SEQ ID NO: 2 was conducted by evaluating the expression of the Survivin protein by Western Blotting on the cultured cellular fractions RA and SA1. The Western Blot technique is a conventional semi-quantitative method for assessing the proportion of proteins in cells.
# Fractions RA and SA1 were grown in boxes 100 mm in diameter at 37° C. in a humidified atmosphere containing 5% CO2 for 48 hours with or without the compound, diluted to 3% (from a 10^−4 M solution). […] The quantitative evaluation of the proteins in the cells is performed using the Chemiimager software (Alpha Innotech Corporation USA). The amount of proteins is expressed as a percentage of the light intensity compared with that of the control conditions, under which no treatment has been received.
# [3] = system: cellular fraction RA (enriched with epidermal adult stem cells); test: Comets test on cellular fraction RA after UVB irradiation; type: cell-based, human; conditions: RA cells cultured 24 hours with peptide at 1%, then UVB 60 mJ/cm^2
# Experimental: The comets test is a test that allows damage caused to DNA to be quantified at a cellular level.
# To this end, in order to confirm the protective effect of a peptide compound according to the present invention, cells of the RA type were cultured for 24 hours with the peptide compound of sequence SEQ ID NO: 2 at a concentration of 1%, and then irradiated with
# UVB radiation at 60 mJ/cm^2. […] The cells were then removed by trypsination from their carrier, and then centrifuged at 900 rpm for 5 minutes before being concentrated and counted.
# A specific cell count (25,000 cells) was then incorporated into a 0.75% Low Melting agarose gel, and then deposited on a glass slide previously coated with 1% agarose. The slides were then immersed in a lysis solution for 1.5 hours at 4° C., and then in an alkaline solution for 20 minutes at 4° C. The cells were then lysed and the DNA denatured. The slides were immersed in an electrophoresis solution before applying an electric field (20 V-250 mA). The thus denatured DNA was subjected to migration within an agarose gel at 4° C. Applying a DNA fluorescent dye on the slides (2 μg/ml propidium iodide) allowed the DNA to be observed in the form of comets in those cases where it had been damaged.
# Quantification software is used to determine the average Tail moment applied to each condition being tested. […]
# [4] = system: RA and TOTAL keratinocytes; test: MITOSOX test (mitochondrial production of free radicals under H2O2 or UVB stress); type: cell-based, human; conditions: peptide at 1% and 3%, 48 hours, stress 5 mM H2O2 30 minutes or UVB 100 mJ/cm^2
# Text: Mitosox is a reactant marketed by Invitrogen (molecular probes M36008). It is used during UV and H2O2 oxidative stress. It uses microscopic imaging to measure the mitochondrial production of free radicals (ROS) in cells. More particularly, Mitosox is specific to the superoxide anion, which is the predominant form of ROS.
# Mitosox is applied to living cells: it permeates the membrane and once inside the cell, diffuses rapidly and specifically within the mitochondria. Once in the mitochondria, Mitosox is oxidized by the superoxide anion into a compound which provides red fluorescence. This reactant is easily oxidized by the superoxide anion but not by other free radicals, nor by reactive species of nitrogen (NOS).
# RA and TOTAL keratinocytes (where TOTAL denotes an entire cellular fraction) were treated three times per day with the peptide compound of SEQ ID NO: 3 at concentrations of 1% and 3%, for 48 hours.
# In a second step, the cells were placed under stress, caused: • either by exposure to 5 mM H2O2 solution for 30 minutes; • or by UVB radiation at 100 mJ/cm^2.
# After stress application, the cells were rinsed and then returned into a suitable medium for one hour at 37° C. in a culture incubator. […] The results were read using fluorescence microscopy.
Substance,fluorescent values of Keratin K19 [1],expression of the Survivin protein ([2]; fraction RA (very rich in epidermal adult stem cells)),expression of the Survivin protein ([2]; fraction SA1 (less rich in epidermal adult stem cells)),Tail Moment decrease vs UVB control [3] [%],"number of fluorescent cells (Mitosox, free radical production) [4]"
Arg-Glu-Met-Asn-Trp-NH2 (REMNW-NH2) [SEQ ID NO: 2],+102.7%,increased,increased,44.7,
DAREMNWDT [SEQ ID NO: 3],,,,,extremely low
